Reference: PubChem BioAssay AID270 (DTP/NCI, 2004)
Where “and” joins values, the source holds several entries; their conditions need not be identical. Equal entries are not always repeated. Inconclusive results are not listed.

Test system: BDF1 mice, s.c. Lewis lung carcinoma, T/C %
Experiment: NCI In Vivo Anticancer Drug Screen. Data for tumor model Lewis Lung Carcinoma (subcutaneous) in B6D2F1 (BDF1) mice
Summary of the method: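 Antitumor effect in vivo is scored from survival or tumor burden, reported as treated relative to vehicle controls.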

[1] = endpoint: mean tumor weight, dose: 200.0 mg/kg/injection, schedule: Q01DX011 (ip), vehicle: other, higher = larger tumour

`C/C(=C\c1ccc(C)cc1)[N+](=O)[O-]` was tested, and the T/C (endpoint: median survival time, dose: 25.0 mg/kg/injection, schedule: Q01DX009 (ip), vehicle: saline with Tween-80, higher = longer survival) was 96 % of control, the T/C (endpoint: median survival time, dose: 50.0 mg/kg/injection, schedule: Q01DX009 (ip), vehicle: saline with Tween-80, higher = longer survival) was 95 % of control and the T/C (endpoint: median survival time, dose: 100.0 mg/kg/injection, schedule: Q01DX009 (ip), vehicle: saline with Tween-80, higher = longer survival) was 94 % of control.

For `CCCCCCCCCCCCO[P+](=O)OCCCCCCCCCCCC`, the T/C (endpoint: mean tumor weight, dose: 50.0 mg/kg/injection, schedule: Q01DX011 (ip), vehicle: other, higher = larger tumour) was 122 % of control, the T/C (endpoint: mean tumor weight, dose: 100.0 mg/kg/injection, schedule: Q01DX011 (ip), vehicle: other, higher = larger tumour) was 98 % of control and the T/C [1] was 76 % of control. For the same molecule, the T/C (endpoint: mean tumor weight, dose: 400.0 mg/kg/injection, schedule: Q01DX011 (ip), vehicle: other, higher = larger tumour) was 65 % of control, the T/C (endpoint: mean tumor weight, dose: 400.0 mg/kg/injection, schedule: Q01DX011 (ip), vehicle: saline, higher = larger tumour) was 36 % of control and the T/C (endpoint: mean tumor weight, dose: 600.0 mg/kg/injection, schedule: Q01DX011 (ip), vehicle: saline, higher = larger tumour) was 19 % of control. For the same molecule, the T/C (endpoint: mean tumor weight, dose: 900.0 mg/kg/injection, schedule: Q01DX011 (ip), vehicle: saline, higher = larger tumour) was 21 % of control, the T/C (endpoint: median survival time, dose: 50.0 mg/kg/injection, schedule: Q01DX009 (ip), vehicle: saline, higher = longer survival) was 108 % of control and the T/C (endpoint: median survival time, dose: 100.0 mg/kg/injection, schedule: Q01DX009 (ip), vehicle: saline, higher = longer survival) was 99 % of control.

`O=c1[nH]c(=O)n(C2CC(O)C(CO)O2)cc1Br` (configuration not stated) was tested, and the T/C (endpoint: mean tumor weight, dose: 50.0 mg/kg/injection, schedule: Q01DX011 (ip), vehicle: carboxymethylcellulose (CMC), higher = larger tumour) was 67 % of control, the T/C (endpoint: mean tumor weight, dose: 100.0 mg/kg/injection, schedule: Q01DX011 (ip), vehicle: carboxymethylcellulose (CMC), higher = larger tumour) was 88 % of control and the T/C (endpoint: mean tumor weight, dose: 200.0 mg/kg/injection, schedule: Q01DX011 (ip), vehicle: carboxymethylcellulose (CMC), higher = larger tumour) was 41 % of control. For the same molecule, the T/C (endpoint: mean tumor weight, dose: 400.0 mg/kg/injection, schedule: Q01DX011 (ip), vehicle: carboxymethylcellulose (CMC), higher = larger tumour) was 53 % of control.

In the case of `Cc1cccc(C)c1[N+](=O)[O-]`, the T/C (endpoint: mean tumor weight, dose: 133.0 mg/kg/injection, schedule: Q01DX011 (ip), vehicle: other, higher = larger tumour) is reported as 88 % of control, the T/C [1] is reported as 66 % of control and the T/C (endpoint: mean tumor weight, dose: 300.0 mg/kg/injection, schedule: Q01DX011 (ip), vehicle: other, higher = larger tumour) is reported as 67 % of control.

In the case of `O=C(CP(=O)(O)O)NC(CC(=O)OCc1ccccc1)C(=O)OCc1ccccc1` (configuration not stated), the T/C (endpoint: median survival time, dose: 50.0 mg/kg/injection, schedule: Q01DX004 (ip), vehicle: saline, higher = longer survival) is reported as 114 % of control and 120 % of control, the T/C (endpoint: median survival time, dose: 100.0 mg/kg/injection, schedule: Q01DX004 (ip), vehicle: saline, higher = longer survival) is reported as 120 % of control and 118 % of control and the T/C (endpoint: median survival time, dose: 200.0 mg/kg/injection, schedule: Q01DX004 (ip), vehicle: saline, higher = longer survival) is reported as 109 % of control. For the same molecule, the T/C (endpoint: median survival time, dose: 400.0 mg/kg/injection, schedule: Q01DX004 (ip), vehicle: saline, higher = longer survival) was 109 % of control and the T/C (endpoint: median survival time, dose: 800.0 mg/kg/injection, schedule: Q01DX004 (ip), vehicle: saline, higher = longer survival) was 116 % of control.

In the case of `Oc1ccc(O)c(/C=N/NC(=S)NC2CC3CC2C2C=CCC32)c1` (configuration not stated), the T/C (endpoint: median survival time, dose: 25.0 mg/kg/injection, schedule: Q01DX009 (ip), vehicle: olive oil, sesame oil, peanut oil, higher = longer survival) is reported as 87 % of control and the T/C (endpoint: median survival time, dose: 50.0 mg/kg/injection, schedule: Q01DX009 (ip), vehicle: olive oil, sesame oil, peanut oil, higher = longer survival) is reported as 86 % of control.

For `CNC1=C(N2CC2)C(=O)C(NC)=C(N2CC2)C1=O`, the T/C (endpoint: median survival time, dose: 0.02 mg/kg/injection, schedule: Q01DX009 (ip), vehicle: saline, higher = longer survival) was 120 % of control, the T/C (endpoint: median survival time, dose: 0.1 mg/kg/injection, schedule: Q01DX009 (ip), vehicle: saline, higher = longer survival) was 113 % of control and the T/C (endpoint: median survival time, dose: 0.2 mg/kg/injection, schedule: Q01DX009 (ip), vehicle: saline, higher = longer survival) was 105 % of control. For the same molecule, the T/C (endpoint: median survival time, dose: 0.4 mg/kg/injection, schedule: Q01DX009 (ip), vehicle: saline, higher = longer survival) was 124 % of control.

For `CC(=O)O[C@H]1C(=O)[C@@]2(C)[C@H]([C@H](OC(=O)c3ccccc3)[C@]3(O)C[C@H](OC(=O)[C@H](O)[C@@H](NC(=O)c4ccccc4)c4ccccc4)C(C)=C1C3(C)C)[C@]1(OC(C)=O)CO[C@@H]1C[C@@H]2O`, the T/C (endpoint: median survival time, dose: 4.0 mg/kg/injection, schedule: Q01DX009 (ip), vehicle: Klucel (hydroxypropylcellulose) (HPC), higher = longer survival) was 112 % of control, the T/C (endpoint: median survival time, dose: 6.0 mg/kg/injection, schedule: Q01DX009 (ip), vehicle: Klucel (hydroxypropylcellulose) (HPC), higher = longer survival) was 109 % of control and the T/C (endpoint: median survival time, dose: 11.0 mg/kg/injection, schedule: Q04DX003 (ip), vehicle: Klucel (hydroxypropylcellulose) (HPC), higher = longer survival) was 94 % of control. For the same molecule, the T/C (endpoint: median survival time, dose: 13.0 mg/kg/injection, schedule: Q01DX001 (ip), vehicle: Klucel (hydroxypropylcellulose) (HPC), higher = longer survival) was 107 % of control, the T/C (endpoint: median survival time, dose: 16.0 mg/kg/injection, schedule: Q04DX003 (ip), vehicle: Klucel (hydroxypropylcellulose) (HPC), higher = longer survival) was 109 % of control and the T/C (endpoint: median survival time, dose: 20.0 mg/kg/injection, schedule: Q01DX001 (ip), vehicle: Klucel (hydroxypropylcellulose) (HPC), higher = longer survival) was 99 % of control. For the same molecule, the T/C (endpoint: median survival time, dose: 30.0 mg/kg/injection, schedule: Q01DX001 (ip), vehicle: Klucel (hydroxypropylcellulose) (HPC), higher = longer survival) was 101 % of control.
